In ChEMBL document CHEMBL5465560, “Selectivity Literature for EUbOPEN Chemogenomic Library” (2024):

Legend:
[1] = biological target: Cyclin-dependent kinase 16 (Homo sapiens) (UniProt Q00536); test: Selectivity interaction (Kinase panel (KiNativ target engagement assay in Jurkat cells)) EUB0001635a CDK16; assay type: cell-based; conditions: Selectivity number of off-targets 0.0, Selectivity number of targets 233.0, Source Knowledge https://www.sciencedirect.com/science/article/pii/S2451945619300674?via%3Dihub, at 1 µM
Cyclin-dependent kinase 16 (Homo sapiens), sequence (Q00536 whole entry, the tested form may be a part): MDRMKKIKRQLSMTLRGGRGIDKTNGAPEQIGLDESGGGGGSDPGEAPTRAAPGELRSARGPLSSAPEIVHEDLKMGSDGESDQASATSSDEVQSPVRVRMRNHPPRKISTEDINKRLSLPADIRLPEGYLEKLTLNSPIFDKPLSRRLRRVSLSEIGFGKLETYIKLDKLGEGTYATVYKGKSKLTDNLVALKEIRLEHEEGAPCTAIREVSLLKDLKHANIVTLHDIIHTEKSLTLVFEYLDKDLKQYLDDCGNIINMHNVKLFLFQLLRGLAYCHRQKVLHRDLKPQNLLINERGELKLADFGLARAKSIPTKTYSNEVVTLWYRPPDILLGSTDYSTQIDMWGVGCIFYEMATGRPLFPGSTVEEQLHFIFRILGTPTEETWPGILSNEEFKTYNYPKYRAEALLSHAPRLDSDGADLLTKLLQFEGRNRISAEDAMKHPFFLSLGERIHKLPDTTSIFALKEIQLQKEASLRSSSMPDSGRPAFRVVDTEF

[2] = biological target: LIM domain kinase 2 (Homo sapiens) (UniProt P53671); test: Selectivity interaction (KinomeScan (DiscoverX)) EUB0001079a LIMK2; conditions: at 1 µM
LIM domain kinase 2 (Homo sapiens), sequence (P53671 whole entry, looked up, the tested form may be a part): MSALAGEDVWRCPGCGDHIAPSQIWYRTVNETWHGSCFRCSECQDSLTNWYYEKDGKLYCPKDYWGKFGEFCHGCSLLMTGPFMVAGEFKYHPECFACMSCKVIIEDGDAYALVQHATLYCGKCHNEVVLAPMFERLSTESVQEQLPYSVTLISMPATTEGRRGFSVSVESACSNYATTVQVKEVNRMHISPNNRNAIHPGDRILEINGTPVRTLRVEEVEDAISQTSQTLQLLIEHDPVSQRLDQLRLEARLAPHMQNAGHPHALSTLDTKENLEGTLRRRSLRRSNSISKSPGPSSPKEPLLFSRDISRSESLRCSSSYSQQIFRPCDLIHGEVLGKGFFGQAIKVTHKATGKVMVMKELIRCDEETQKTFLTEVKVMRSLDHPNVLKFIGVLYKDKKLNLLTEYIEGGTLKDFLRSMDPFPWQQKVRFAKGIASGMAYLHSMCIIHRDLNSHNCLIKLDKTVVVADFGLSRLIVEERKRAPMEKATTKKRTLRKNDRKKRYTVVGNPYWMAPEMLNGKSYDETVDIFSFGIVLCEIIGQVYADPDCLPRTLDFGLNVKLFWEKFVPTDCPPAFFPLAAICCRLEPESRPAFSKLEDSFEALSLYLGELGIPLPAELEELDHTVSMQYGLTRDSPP

[3] = biological target: T1, Ephrin type-A receptor 3 (Homo sapiens) (UniProt P29320); test: Selectivity interaction (KinomeScan (DiscoverX)) EUB0001079a EPHA3; conditions: at 1 µM
T1 sequence (whole entry): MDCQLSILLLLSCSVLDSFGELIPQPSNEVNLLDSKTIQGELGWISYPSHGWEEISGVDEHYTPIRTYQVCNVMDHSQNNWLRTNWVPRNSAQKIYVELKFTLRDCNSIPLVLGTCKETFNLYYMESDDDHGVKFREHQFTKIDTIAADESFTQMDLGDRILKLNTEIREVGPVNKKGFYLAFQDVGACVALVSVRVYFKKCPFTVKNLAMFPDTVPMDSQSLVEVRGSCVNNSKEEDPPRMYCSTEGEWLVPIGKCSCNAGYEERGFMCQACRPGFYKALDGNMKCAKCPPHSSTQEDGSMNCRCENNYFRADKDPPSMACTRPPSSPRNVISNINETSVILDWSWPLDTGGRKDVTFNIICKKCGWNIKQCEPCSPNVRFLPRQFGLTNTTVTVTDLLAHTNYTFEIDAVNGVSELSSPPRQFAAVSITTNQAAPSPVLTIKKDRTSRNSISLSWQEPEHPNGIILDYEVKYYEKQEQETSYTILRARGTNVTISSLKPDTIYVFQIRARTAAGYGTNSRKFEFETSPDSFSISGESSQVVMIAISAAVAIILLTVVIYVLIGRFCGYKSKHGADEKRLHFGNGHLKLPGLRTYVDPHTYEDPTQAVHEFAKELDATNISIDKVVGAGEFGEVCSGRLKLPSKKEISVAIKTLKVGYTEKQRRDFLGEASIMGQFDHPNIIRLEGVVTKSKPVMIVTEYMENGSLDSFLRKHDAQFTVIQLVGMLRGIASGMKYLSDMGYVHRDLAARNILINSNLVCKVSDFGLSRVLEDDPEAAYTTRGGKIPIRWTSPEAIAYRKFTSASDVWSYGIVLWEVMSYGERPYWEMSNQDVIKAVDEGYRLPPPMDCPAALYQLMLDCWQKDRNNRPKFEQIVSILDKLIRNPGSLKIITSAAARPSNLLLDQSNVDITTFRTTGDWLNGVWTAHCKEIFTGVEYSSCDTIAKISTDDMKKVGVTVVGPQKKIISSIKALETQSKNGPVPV

[4] = biological target: T2, Phosphorylase b kinase gamma catalytic chain, liver/testis isoform (Homo sapiens) (UniProt P15735); test: Selectivity interaction (KinomeScan (DiscoverX)) EUB0001049a PHKG2; conditions: at 1 µM
T2 sequence (whole entry): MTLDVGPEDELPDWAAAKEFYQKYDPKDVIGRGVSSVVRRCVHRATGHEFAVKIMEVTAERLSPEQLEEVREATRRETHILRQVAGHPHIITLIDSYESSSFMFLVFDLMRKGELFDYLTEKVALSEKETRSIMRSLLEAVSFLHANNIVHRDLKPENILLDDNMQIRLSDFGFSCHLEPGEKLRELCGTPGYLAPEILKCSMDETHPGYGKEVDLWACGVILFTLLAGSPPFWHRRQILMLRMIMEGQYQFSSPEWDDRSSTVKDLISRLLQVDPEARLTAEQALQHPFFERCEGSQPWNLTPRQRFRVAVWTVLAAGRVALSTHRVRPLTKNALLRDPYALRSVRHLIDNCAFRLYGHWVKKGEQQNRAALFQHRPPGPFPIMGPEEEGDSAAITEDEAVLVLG

[5] = biological target: Tyrosine-protein kinase SYK (Homo sapiens, UniProt P43405); test: Selectivity interaction (Kinase panel (33PanQinase(R) Activity Assay)) EUB0000877a SYK
[6] = biological target: Fibroblast growth factor receptor 4 (Homo sapiens, UniProt P22455); test: Selectivity interaction (Kinase panel (33PanQinase(R) Activity Assay)) EUB0000877a FGFR4
Fibroblast growth factor receptor 4, sequence (P22455 whole entry): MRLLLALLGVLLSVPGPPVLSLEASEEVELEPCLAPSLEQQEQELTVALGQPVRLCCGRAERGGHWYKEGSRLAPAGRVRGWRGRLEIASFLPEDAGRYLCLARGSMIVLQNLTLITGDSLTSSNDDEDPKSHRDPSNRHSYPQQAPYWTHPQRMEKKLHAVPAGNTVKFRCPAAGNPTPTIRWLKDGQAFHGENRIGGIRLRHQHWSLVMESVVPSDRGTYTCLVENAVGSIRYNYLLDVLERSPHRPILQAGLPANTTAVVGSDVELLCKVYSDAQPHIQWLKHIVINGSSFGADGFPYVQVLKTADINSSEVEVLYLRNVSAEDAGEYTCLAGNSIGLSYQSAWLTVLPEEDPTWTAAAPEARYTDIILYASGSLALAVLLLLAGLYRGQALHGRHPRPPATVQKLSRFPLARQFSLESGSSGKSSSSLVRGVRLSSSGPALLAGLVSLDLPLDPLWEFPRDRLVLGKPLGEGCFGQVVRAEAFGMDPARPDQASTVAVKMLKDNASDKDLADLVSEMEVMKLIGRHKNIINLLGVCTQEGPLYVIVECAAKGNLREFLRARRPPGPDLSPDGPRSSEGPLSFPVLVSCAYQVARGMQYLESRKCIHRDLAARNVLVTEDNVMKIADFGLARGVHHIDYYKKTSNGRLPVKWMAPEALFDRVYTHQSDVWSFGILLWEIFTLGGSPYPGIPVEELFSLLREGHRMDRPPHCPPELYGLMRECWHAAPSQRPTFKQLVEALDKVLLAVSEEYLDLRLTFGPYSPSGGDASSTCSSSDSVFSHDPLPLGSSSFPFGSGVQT

[7] = biological target: T3, Ephrin type-B receptor 4 (Homo sapiens) (UniProt P54760); test: Selectivity interaction (KinomeScan (DiscoverX)) EUB0000607a EPHB4; conditions: at 10 µM
T3 sequence (whole entry): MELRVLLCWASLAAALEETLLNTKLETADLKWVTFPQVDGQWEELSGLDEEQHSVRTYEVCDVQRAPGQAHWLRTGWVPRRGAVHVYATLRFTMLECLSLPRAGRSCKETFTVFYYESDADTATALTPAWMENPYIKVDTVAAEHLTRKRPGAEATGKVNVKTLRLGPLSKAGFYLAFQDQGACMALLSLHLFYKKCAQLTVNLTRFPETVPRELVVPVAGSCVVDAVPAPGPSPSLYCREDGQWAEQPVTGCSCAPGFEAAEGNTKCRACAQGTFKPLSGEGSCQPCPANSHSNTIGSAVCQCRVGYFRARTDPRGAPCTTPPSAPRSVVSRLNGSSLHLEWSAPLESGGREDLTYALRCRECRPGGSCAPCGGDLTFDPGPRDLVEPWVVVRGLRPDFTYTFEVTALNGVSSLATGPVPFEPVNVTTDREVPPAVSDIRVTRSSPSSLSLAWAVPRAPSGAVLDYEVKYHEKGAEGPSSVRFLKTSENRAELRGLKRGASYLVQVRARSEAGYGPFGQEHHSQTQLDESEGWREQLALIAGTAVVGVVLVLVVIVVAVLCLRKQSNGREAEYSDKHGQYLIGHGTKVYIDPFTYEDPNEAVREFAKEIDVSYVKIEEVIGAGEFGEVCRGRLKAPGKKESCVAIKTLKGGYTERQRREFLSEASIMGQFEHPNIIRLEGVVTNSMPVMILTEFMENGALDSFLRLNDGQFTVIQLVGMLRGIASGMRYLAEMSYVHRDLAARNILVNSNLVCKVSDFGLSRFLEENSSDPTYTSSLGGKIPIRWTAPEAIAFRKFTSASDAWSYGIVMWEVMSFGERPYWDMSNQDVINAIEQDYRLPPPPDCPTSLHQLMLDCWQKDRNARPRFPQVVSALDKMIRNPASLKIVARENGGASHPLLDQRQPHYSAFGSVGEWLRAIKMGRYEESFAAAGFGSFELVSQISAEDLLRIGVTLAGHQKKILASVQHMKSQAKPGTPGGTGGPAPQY

[8] = system: Phosphatidylinositol 4,5-bisphosphate 3-kinase catalytic subunit alpha isoform (Homo sapiens), P42336 [Q546K]; conditions: at 10 µM
Phosphatidylinositol 4,5-bisphosphate 3-kinase catalytic subunit alpha isoform (Homo sapiens), P42336 [Q546K], sequence (P42336 whole entry Q546K, the tested form may be a part, canonical isoform): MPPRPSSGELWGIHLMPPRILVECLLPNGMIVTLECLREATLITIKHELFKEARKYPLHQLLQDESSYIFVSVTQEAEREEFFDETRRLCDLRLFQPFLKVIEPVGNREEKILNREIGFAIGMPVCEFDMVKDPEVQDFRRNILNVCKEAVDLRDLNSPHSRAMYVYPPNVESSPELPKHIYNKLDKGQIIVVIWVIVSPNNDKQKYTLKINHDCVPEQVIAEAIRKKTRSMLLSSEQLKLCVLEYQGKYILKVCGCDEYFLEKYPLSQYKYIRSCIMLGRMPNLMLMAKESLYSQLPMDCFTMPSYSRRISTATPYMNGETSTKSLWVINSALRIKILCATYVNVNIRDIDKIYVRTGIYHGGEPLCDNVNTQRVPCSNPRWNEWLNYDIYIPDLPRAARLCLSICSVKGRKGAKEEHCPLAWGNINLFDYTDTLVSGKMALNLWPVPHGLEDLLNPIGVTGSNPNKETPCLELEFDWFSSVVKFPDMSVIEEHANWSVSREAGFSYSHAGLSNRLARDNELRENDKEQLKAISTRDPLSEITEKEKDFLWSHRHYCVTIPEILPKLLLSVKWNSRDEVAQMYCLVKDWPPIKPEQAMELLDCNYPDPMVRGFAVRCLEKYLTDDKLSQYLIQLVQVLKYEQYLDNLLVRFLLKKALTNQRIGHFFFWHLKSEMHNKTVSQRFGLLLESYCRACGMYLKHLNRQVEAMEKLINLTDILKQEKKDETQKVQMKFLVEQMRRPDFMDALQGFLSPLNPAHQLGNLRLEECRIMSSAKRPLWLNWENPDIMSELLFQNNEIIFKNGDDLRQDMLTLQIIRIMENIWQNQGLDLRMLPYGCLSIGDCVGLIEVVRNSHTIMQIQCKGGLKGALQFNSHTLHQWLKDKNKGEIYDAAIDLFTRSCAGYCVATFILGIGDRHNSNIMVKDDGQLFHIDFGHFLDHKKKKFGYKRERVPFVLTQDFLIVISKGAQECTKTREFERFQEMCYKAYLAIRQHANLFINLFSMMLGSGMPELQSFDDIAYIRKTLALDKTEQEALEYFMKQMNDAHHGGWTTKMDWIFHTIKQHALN

[9] = biological target: Phosphatidylinositol 4-phosphate 3-kinase C2 domain-containing subunit beta (Homo sapiens) (UniProt O00750); test: Selectivity interaction (Ambit KINOMEscan and KiNATiv profiling in Jurkat cells) EUB0000090b PIK3C2B; assay type: cell-based; conditions: at 1 µM
Phosphatidylinositol 4-phosphate 3-kinase C2 domain-containing subunit beta (Homo sapiens), sequence (O00750 whole entry, the tested form may be a part): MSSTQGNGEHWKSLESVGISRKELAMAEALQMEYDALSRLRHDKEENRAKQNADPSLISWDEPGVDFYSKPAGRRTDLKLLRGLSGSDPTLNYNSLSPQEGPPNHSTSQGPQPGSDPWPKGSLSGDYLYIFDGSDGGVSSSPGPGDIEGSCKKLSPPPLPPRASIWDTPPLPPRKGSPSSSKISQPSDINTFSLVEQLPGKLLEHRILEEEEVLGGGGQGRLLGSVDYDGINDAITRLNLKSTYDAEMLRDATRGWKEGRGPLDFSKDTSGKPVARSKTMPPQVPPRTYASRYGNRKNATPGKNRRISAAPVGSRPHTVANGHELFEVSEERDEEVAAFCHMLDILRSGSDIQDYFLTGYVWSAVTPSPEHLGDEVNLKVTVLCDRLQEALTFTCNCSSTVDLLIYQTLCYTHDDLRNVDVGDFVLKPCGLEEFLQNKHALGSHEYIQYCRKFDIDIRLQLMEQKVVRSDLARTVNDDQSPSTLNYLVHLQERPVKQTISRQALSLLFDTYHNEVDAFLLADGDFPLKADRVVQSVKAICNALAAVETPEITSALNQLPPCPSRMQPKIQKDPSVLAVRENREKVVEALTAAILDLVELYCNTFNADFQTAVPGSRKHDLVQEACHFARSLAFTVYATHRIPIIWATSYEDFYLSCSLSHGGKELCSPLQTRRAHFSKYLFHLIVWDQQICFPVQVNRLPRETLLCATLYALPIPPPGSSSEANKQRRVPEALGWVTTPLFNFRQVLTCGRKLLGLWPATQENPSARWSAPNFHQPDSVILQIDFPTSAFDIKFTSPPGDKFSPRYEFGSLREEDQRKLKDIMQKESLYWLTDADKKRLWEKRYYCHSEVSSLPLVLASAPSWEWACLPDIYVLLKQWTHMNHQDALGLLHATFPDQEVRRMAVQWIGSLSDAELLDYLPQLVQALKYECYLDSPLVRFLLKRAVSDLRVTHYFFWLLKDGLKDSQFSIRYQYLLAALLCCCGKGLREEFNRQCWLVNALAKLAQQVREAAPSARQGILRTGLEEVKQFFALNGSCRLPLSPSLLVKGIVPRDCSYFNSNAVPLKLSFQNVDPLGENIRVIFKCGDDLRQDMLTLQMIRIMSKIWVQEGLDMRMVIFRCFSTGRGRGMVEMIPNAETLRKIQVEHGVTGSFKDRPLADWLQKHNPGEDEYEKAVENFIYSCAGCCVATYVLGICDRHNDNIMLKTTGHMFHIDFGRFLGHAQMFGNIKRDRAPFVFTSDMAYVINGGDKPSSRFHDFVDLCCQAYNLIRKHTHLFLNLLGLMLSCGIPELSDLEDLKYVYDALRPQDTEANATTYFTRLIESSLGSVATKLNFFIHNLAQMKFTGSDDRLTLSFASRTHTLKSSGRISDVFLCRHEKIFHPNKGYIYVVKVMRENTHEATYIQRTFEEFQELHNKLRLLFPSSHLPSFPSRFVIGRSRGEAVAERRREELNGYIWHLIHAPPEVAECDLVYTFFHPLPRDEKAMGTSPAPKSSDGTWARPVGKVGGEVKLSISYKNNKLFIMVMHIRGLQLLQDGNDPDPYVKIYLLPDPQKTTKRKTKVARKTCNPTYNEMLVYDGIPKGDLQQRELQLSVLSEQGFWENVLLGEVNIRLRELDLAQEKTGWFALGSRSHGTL

## C=CC(=O)Nc1ccc(C(=O)Nc2[nH]nc3c2CN(C(=O)N[C@H](CN(C)C)c2ccccc2)C3(C)C)cc1
[1]
  % of engagement: 3.1%

## Nc1cnc(N2CCc3cc(S(=O)(=O)Nc4c(F)cc(Cl)cc4F)cc(N4CCCC4=O)c32)nc1 [TP-020n]
[2]
  % of control: 100%
[3]
  % of control: 78%

## COc1cc(Nc2nc(C)cc(-c3cnn4nc(OC)ccc34)n2)cc(C(F)(F)F)c1
[4]
  % of control: 100%

## CCC(=O)N1CC[C@H](Nc2ncnc3c2CN(c2cnc(OC)c(C(F)(F)F)c2)CC3)C1 [LENIOLISIB]
[5]
  IC50: > 10 µM
[6]
  IC50: > 10 µM

## CNC(=O)Nc1ccc(-c2nc(N3CC4CCC(C3)O4)c3cnn(C4CCC5(CC4)OCCO5)c3n2)cc1
[7]
  % of control: 100%
[8]
  % of control: 11%

## CN(C)C/C=C/C(=O)Nc1ccc(C(=O)N2CCCC(Nc3ncc(Cl)c(-c4c[nH]c5ccccc45)n3)C2)cc1 (centres undefined)
[9]
  % of control: 94%
